# Source: PubChem BioAssay (NCI)
#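 How tested: cells in 96-well plates exposed to compound for 48 hours at five concentrations. GI50 marks 50% less growth. TGI denotes the concentration required for complete inhibition of growth.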
# Columns and labels:
# Assay in all cases: NCI tumour cell line growth inhibition, 48 h
# SK-MEL-5 melanoma = tested on: SK-MEL-5 melanoma
# T-47D breast = tested on: T-47D breast
# SN12C renal = tested on: SN12C renal
# UACC-62 melanoma = tested on: UACC-62 melanoma
# LOX IMVI melanoma = tested on: LOX IMVI melanoma
# SK-MEL-28 melanoma = tested on: SK-MEL-28 melanoma
# MOLT-4 leukemia = tested on: MOLT-4 leukemia
# U251 CNS = tested on: U251 CNS
# MCF7 breast = tested on: MCF7 breast
# COLO 205 colon = tested on: COLO 205 colon
# SW-620 colon = tested on: SW-620 colon
# HS 578T breast = tested on: HS 578T breast
# OVCAR-3 ovarian = tested on: OVCAR-3 ovarian
# M14 melanoma = tested on: M14 melanoma
# SK-MEL-2 melanoma = tested on: SK-MEL-2 melanoma
# A498 renal = tested on: A498 renal
# SNB-75 CNS = tested on: SNB-75 CNS
# SF-539 CNS = tested on: SF-539 CNS
# HOP-62 NSCLC = tested on: HOP-62 NSCLC
# CCRF-CEM leukemia = tested on: CCRF-CEM leukemia
# A549 NSCLC = tested on: A549 NSCLC
# SK-OV-3 ovarian = tested on: SK-OV-3 ovarian
# DU-145 prostate = tested on: DU-145 prostate
# HL-60(TB) leukemia = tested on: HL-60(TB) leukemia
# MDA-MB-231 breast = tested on: MDA-MB-231 breast
# OVCAR-4 ovarian = tested on: OVCAR-4 ovarian
# K-562 leukemia = tested on: K-562 leukemia
# SR leukemia = tested on: SR leukemia
# PC-3 prostate = tested on: PC-3 prostate
# HCC-2998 colon = tested on: HCC-2998 colon
# NCI/ADR-RES ovarian = tested on: NCI/ADR-RES ovarian
# SF-268 CNS = tested on: SF-268 CNS
# NCI-H460 lung = tested on: NCI-H460 lung
# 786-0 renal = tested on: 786-0 renal
# RPMI-8226 leukemia = tested on: RPMI-8226 leukemia
# SNB-19 CNS = tested on: SNB-19 CNS
# BT-549 breast = tested on: BT-549 breast
# NCI-H226 lung = tested on: NCI-H226 lung
# ACHN renal = tested on: ACHN renal
# UACC-257 melanoma = tested on: UACC-257 melanoma
# TK-10 renal = tested on: TK-10 renal
# NCI-H23 lung = tested on: NCI-H23 lung
# OVCAR-8 ovarian = tested on: OVCAR-8 ovarian
# OVCAR-5 ovarian = tested on: OVCAR-5 ovarian
# KM12 colon = tested on: KM12 colon
# RXF 393 renal = tested on: RXF 393 renal
# NCI-H522 lung = tested on: NCI-H522 lung
# HCT-15 colon = tested on: HCT-15 colon
# HCT-116 colon = tested on: HCT-116 colon
# SF-295 CNS = tested on: SF-295 CNS
# IGROV1 ovarian = tested on: IGROV1 ovarian
# EKVX NSCLC = tested on: EKVX NSCLC
# MDA-MB-435 = tested on: MDA-MB-435
# CAKI-1 renal = tested on: CAKI-1 renal
# UO-31 renal = tested on: UO-31 renal
compound,measurement,setting,value
O=C1NC(=O)C(=C/C=C/c2ccccc2)C(=O)N1,GI50,SK-MEL-5 melanoma,2.24 µM
same,TGI,SK-MEL-5 melanoma,4.94 µM
same,GI50,T-47D breast,11.6 µM
same,TGI,T-47D breast,53 µM
same,GI50,SN12C renal,3.27 µM
same,TGI,SN12C renal,19.5 µM
same,GI50,UACC-62 melanoma,1.88 µM
same,TGI,UACC-62 melanoma,4.5 µM
same,GI50,LOX IMVI melanoma,1.55 µM
same,TGI,LOX IMVI melanoma,3.3 µM
same,GI50,SK-MEL-28 melanoma,1.91 µM
same,TGI,SK-MEL-28 melanoma,3.59 µM
same,GI50,MOLT-4 leukemia,4.12 µM
same,TGI,MOLT-4 leukemia,25.1 µM
same,GI50,U251 CNS,2.5 µM
same,TGI,U251 CNS,10.3 µM
same,GI50,MCF7 breast,2.97 µM
same,TGI,MCF7 breast,20.1 µM
same,GI50,COLO 205 colon,2.33 µM
same,TGI,COLO 205 colon,4.97 µM
same,GI50,SW-620 colon,1.79 µM
same,TGI,SW-620 colon,4.22 µM
same,GI50,HS 578T breast,4.81 µM
same,TGI,HS 578T breast,50.4 µM
same,GI50,OVCAR-3 ovarian,1.53 µM
same,TGI,OVCAR-3 ovarian,3.97 µM
same,GI50,M14 melanoma,2.04 µM
same,TGI,M14 melanoma,4.73 µM
same,GI50,SK-MEL-2 melanoma,3.65 µM
same,TGI,SK-MEL-2 melanoma,16.2 µM
same,GI50,A498 renal,20 µM
same,TGI,A498 renal,34.6 µM
same,GI50,SNB-75 CNS,6 µM
same,TGI,SNB-75 CNS,19.4 µM
same,GI50,SF-539 CNS,2.33 µM
same,TGI,SF-539 CNS,6.3 µM
same,GI50,HOP-62 NSCLC,12 µM
same,TGI,HOP-62 NSCLC,25.5 µM
same,GI50,CCRF-CEM leukemia,3.57 µM
same,TGI,CCRF-CEM leukemia,> 100 µM
same,GI50,A549 NSCLC,7.06 µM
same,TGI,A549 NSCLC,28 µM
same,GI50,SK-OV-3 ovarian,16.5 µM
same,TGI,SK-OV-3 ovarian,30.5 µM
same,GI50,DU-145 prostate,2.13 µM
same,TGI,DU-145 prostate,4.87 µM
same,GI50,HL-60(TB) leukemia,2.91 µM
same,TGI,HL-60(TB) leukemia,8.08 µM
same,GI50,MDA-MB-231 breast,3.73 µM
same,TGI,MDA-MB-231 breast,16 µM
same,GI50,OVCAR-4 ovarian,5.37 µM
same,TGI,OVCAR-4 ovarian,17.2 µM
same,GI50,K-562 leukemia,4.94 µM
same,TGI,K-562 leukemia,70 µM
same,GI50,SR leukemia,0.716 µM
same,TGI,SR leukemia,> 100 µM
same,GI50,PC-3 prostate,4.59 µM
same,TGI,PC-3 prostate,23.4 µM
same,GI50,HCC-2998 colon,2.2 µM
same,TGI,HCC-2998 colon,4.1 µM
same,GI50,NCI/ADR-RES ovarian,3.78 µM
same,TGI,NCI/ADR-RES ovarian,16.7 µM
same,GI50,SF-268 CNS,3.2 µM
same,TGI,SF-268 CNS,10.3 µM
same,GI50,NCI-H460 lung,2.78 µM
same,TGI,NCI-H460 lung,7.31 µM
same,GI50,786-0 renal,3.11 µM
same,TGI,786-0 renal,11 µM
same,GI50,RPMI-8226 leukemia,3.59 µM
same,TGI,RPMI-8226 leukemia,10.2 µM
same,GI50,SNB-19 CNS,5.14 µM
same,TGI,SNB-19 CNS,24.7 µM
same,GI50,BT-549 breast,2.32 µM
same,TGI,BT-549 breast,6.79 µM
same,GI50,NCI-H226 lung,2.81 µM
same,TGI,NCI-H226 lung,7.25 µM
same,GI50,ACHN renal,2.32 µM
same,TGI,ACHN renal,5.65 µM
same,GI50,UACC-257 melanoma,2.24 µM
same,TGI,UACC-257 melanoma,7.34 µM
same,GI50,TK-10 renal,5.62 µM
same,TGI,TK-10 renal,18.3 µM
same,GI50,NCI-H23 lung,2.16 µM
same,TGI,NCI-H23 lung,5.29 µM
same,GI50,OVCAR-8 ovarian,3.01 µM
same,TGI,OVCAR-8 ovarian,17.8 µM
same,GI50,OVCAR-5 ovarian,5.33 µM
same,TGI,OVCAR-5 ovarian,23 µM
same,GI50,KM12 colon,1.74 µM
same,TGI,KM12 colon,3.26 µM
same,GI50,RXF 393 renal,1.39 µM
same,TGI,RXF 393 renal,2.71 µM
same,GI50,NCI-H522 lung,2.36 µM
same,TGI,NCI-H522 lung,7.15 µM
same,GI50,HCT-15 colon,2.2 µM
same,TGI,HCT-15 colon,7.06 µM
same,GI50,HCT-116 colon,1.71 µM
same,TGI,HCT-116 colon,3.28 µM
Oc1ccc(O)c(-c2cn3ccsc3n2)c1,GI50,SK-MEL-5 melanoma,12.7 µM
same,TGI,SK-MEL-5 melanoma,25.2 µM
same,GI50,SF-295 CNS,13.6 µM
same,TGI,SF-295 CNS,51.2 µM
same,GI50,T-47D breast,19.7 µM
same,TGI,T-47D breast,40.6 µM
same,GI50,SN12C renal,12.2 µM
same,TGI,SN12C renal,26.9 µM
same,GI50,UACC-62 melanoma,10.8 µM
same,TGI,UACC-62 melanoma,29.9 µM
same,GI50,IGROV1 ovarian,15.4 µM
same,TGI,IGROV1 ovarian,28.7 µM
same,GI50,LOX IMVI melanoma,5.68 µM
same,TGI,LOX IMVI melanoma,21.3 µM
same,GI50,MOLT-4 leukemia,2.55 µM
same,TGI,MOLT-4 leukemia,5.42 µM
same,GI50,U251 CNS,15.8 µM
same,TGI,U251 CNS,33.7 µM
same,GI50,MCF7 breast,5.5 µM
same,TGI,MCF7 breast,27.2 µM
same,GI50,COLO 205 colon,21.4 µM
same,TGI,COLO 205 colon,48.2 µM
same,GI50,SW-620 colon,7.1 µM
same,TGI,SW-620 colon,19.1 µM
same,GI50,HS 578T breast,30.4 µM
same,TGI,HS 578T breast,68.7 µM
same,GI50,OVCAR-3 ovarian,7.4 µM
same,TGI,OVCAR-3 ovarian,20.9 µM
same,GI50,M14 melanoma,15.2 µM
same,TGI,M14 melanoma,28.5 µM
same,GI50,SK-MEL-2 melanoma,50.4 µM
same,TGI,SK-MEL-2 melanoma,> 100 µM
same,GI50,A498 renal,47 µM
same,TGI,A498 renal,84.5 µM
same,GI50,CCRF-CEM leukemia,1.59 µM
same,TGI,CCRF-CEM leukemia,4.23 µM
same,GI50,A549 NSCLC,22.9 µM
same,TGI,A549 NSCLC,48.9 µM
same,GI50,SK-OV-3 ovarian,19.1 µM
same,TGI,SK-OV-3 ovarian,51.6 µM
same,GI50,EKVX NSCLC,18.4 µM
same,TGI,EKVX NSCLC,35.8 µM
same,GI50,MDA-MB-231 breast,11.7 µM
same,TGI,MDA-MB-231 breast,33.7 µM
same,GI50,K-562 leukemia,6.93 µM
same,TGI,K-562 leukemia,26.1 µM
same,GI50,SR leukemia,1.48 µM
same,TGI,SR leukemia,4.43 µM
same,GI50,PC-3 prostate,10.1 µM
same,TGI,PC-3 prostate,21.7 µM
same,GI50,HCC-2998 colon,16.5 µM
same,TGI,HCC-2998 colon,31.1 µM
same,GI50,NCI/ADR-RES ovarian,12.9 µM
same,TGI,NCI/ADR-RES ovarian,25.5 µM
same,GI50,SF-268 CNS,14.4 µM
same,TGI,SF-268 CNS,> 100 µM
same,GI50,NCI-H460 lung,13.6 µM
same,TGI,NCI-H460 lung,31.4 µM
same,GI50,786-0 renal,4.04 µM
same,TGI,786-0 renal,15 µM
same,GI50,RPMI-8226 leukemia,1.73 µM
same,TGI,RPMI-8226 leukemia,7.82 µM
same,GI50,SNB-19 CNS,20.9 µM
same,TGI,SNB-19 CNS,49.7 µM
same,GI50,BT-549 breast,5.61 µM
same,TGI,BT-549 breast,21 µM
same,GI50,NCI-H226 lung,9.11 µM
same,TGI,NCI-H226 lung,33.6 µM
same,GI50,MDA-MB-435,11.2 µM
same,TGI,MDA-MB-435,23.7 µM
same,GI50,ACHN renal,12.7 µM
same,TGI,ACHN renal,25.3 µM
same,GI50,UACC-257 melanoma,24.3 µM
same,TGI,UACC-257 melanoma,50.3 µM
same,GI50,TK-10 renal,21.3 µM
same,TGI,TK-10 renal,47.9 µM
same,GI50,NCI-H23 lung,16.9 µM
same,TGI,NCI-H23 lung,64.3 µM
same,GI50,CAKI-1 renal,2.18 µM
same,TGI,CAKI-1 renal,4.99 µM
same,GI50,OVCAR-8 ovarian,19.6 µM
same,TGI,OVCAR-8 ovarian,67.1 µM
same,GI50,OVCAR-5 ovarian,12 µM
same,TGI,OVCAR-5 ovarian,26.5 µM
same,GI50,KM12 colon,12.5 µM
same,TGI,KM12 colon,27.7 µM
same,GI50,UO-31 renal,12.6 µM
same,TGI,UO-31 renal,25.2 µM
same,GI50,RXF 393 renal,14.5 µM
same,TGI,RXF 393 renal,29.6 µM
same,GI50,NCI-H522 lung,4.29 µM
same,TGI,NCI-H522 lung,> 100 µM
same,GI50,HCT-15 colon,12.3 µM
same,TGI,HCT-15 colon,24.7 µM
same,GI50,HCT-116 colon,5.68 µM
same,TGI,HCT-116 colon,18.3 µM
